Data published in patent US20260256756A1, “USE OF PIPERIDINE ALKENE COMPOUND IN PREPARATION OF DRUG FOR TREATING CANCER” (JIANGSU HANSOH PHARMACEUTICAL GROUP CO., LTD., priority 2023, published 2026).

Experiments:
[1] = test system: human ovarian cancer OV-10-0060 xenograft tumor; test: Subcutaneous xenograft tumor model of human ovarian cancer OV-10-0060; type: in vivo, BALB/c nude mice
Description: • 1. Experimental objective: To evaluate the in vivo efficacy of the compound in a subcutaneous xenograft tumor model of human ovarian cancer OV-10-0060 in nude mice. • 2. Reagent • HPMC (A1921068, Shanghai Aladdin Biochemical Technology Co., Ltd.), DMEM medium (11995-065, Gibco) • 3. Experimental operations and data processing • 3.1 Animals: BALB/c nude mice, 6-8 weeks old, female, purchased from the Laboratory Animal Business Department of Shanghai Institute of Planned Parenthood Research. • 3.2 Animal modeling • Tumor tissues were harvested from ovarian cancer xenograft model OV-10-0060 tumor-bearing mice and cut into tumor fragments with a diameter of 2-3 mm, which were subcutaneously inoculated into the right anterior scapula region of BALB/c nude mice. • 3.3 Tumor measurement and grouping in tumor-bearing mice • Prior to drug administration, all animals were weighed, and tumor volumes were measured using a vernier caliper. The tumor volume was calculated as: tumor volume (mm^3)=length (mm)×width (mm)×width (mm)/2. According to the body weight of tumor-bearing mice and the size of the tumor, the mice were grouped by random grouping. • 3.4 Administration in tumor-bearing mice • According to the grouping results, the test drug was started to be administered (administration method: oral administration; administration volume: 10 mL/kg; administration frequency: once/day; administration cycle: 28 days; vehicle: 0.5% HPMC). Tumor measurement and weighing were performed twice a week after starting administration of test drugs. The animals were euthanized at the end of the experiment. • 3.5 Data processing • Data processing was performed using software such as GraphPad Prism. The tumor inhibitory efficacy of the compound was evaluated by TGI (%) and ΔT/ΔC (%). ΔT/ΔC (%)=(T−T0)/(C−C0)×100, where T and C are the tumor volumes of the treatment group and the vehicle control group at the end of the experiment, respectively, and T0 and C0 are the tumor volumes of the treatment group and the vehicle control group at the beginning of the experiment, respectively. Tumor growth inhibition (TGI) (%)=100−ΔT/ΔC (%). Tumor growth inhibition (TGI) (%)=100−(T−T0)/T0×100 when tumor regression occurs • 4. Experimental results and conclusions

[2] = test system: CAOV-3 cells; test: In vitro proliferation inhibition (CellTiter-Glo), CAOV-3; type: cell-based; conditions: Homo sapiens; CAOV-3, ovarian cancer, HRD-positive (low expression of ATM protein); 6-10 days culture
Description: […]
(§1) Experimental data processing method: The luminescence signal value was used to calculate the inhibition rate. […]

[3] = test system: MX-1 cells; test: In vitro proliferation inhibition (CellTiter-Glo), MX-1; type: cell-based; conditions: Homo sapiens, MX1; MX-1, triple-negative breast cancer, BRCA1 mutation; 6-10 days culture
Description: […]
as §1

[4] = test system: BRCA2 Knockout DLD-1 cells; test: In vitro proliferation inhibition (CellTiter-Glo), BRCA2 Knockout DLD-1; type: cell-based; conditions: Homo sapiens; DLD-1, colorectal cancer, BRCA2 deletion; 6-10 days culture
Description: […]
as §1

[5] = test system: PSN-1 cells; test: In vitro proliferation inhibition (CellTiter-Glo), PSN-1; type: cell-based; conditions: Homo sapiens, PSN1; PSN-1, pancreatic cancer, HRD-positive (low expression of MRE11A/CHEK2 protein); 6-10 days culture
Description: […]
as §1

[6] = OV-10-0060, 100 mg/kg oral once/day, Day 27
[7] = OV-10-0060, 10 mg/kg oral once/day, Day 27

Structure (SMILES)	Tumor volume (Mean ± SEM) ([1]; OV-10-0060, 100 mg/kg oral once/day, Day 0)	T/C [1, 6]	TGI [1, 6]	Tumor volume (Mean ± SEM) [1, 6]	IC50 [2]	IC50 [3]	IC50 [4]	IC50 [5]	Tumor volume (Mean ± SEM) ([1]; OV-10-0060, 10 mg/kg oral once/day, Day 0)	T/C [1, 7]	TGI [1, 7]	Tumor volume (Mean ± SEM) [1, 7]
O=C(c1cc(Cc2n[nH]c(=O)c3ccccc23)ccc1F)N1CCN(C(=O)C2CC2)CC1 [Olaparib]	124 ± 4 mm^3	79.24%	22.00%	1,787 ± 158 mm^3	151 ± 18 nM	246 ± 104 nM	160 ± 66 nM	65 ± 19 nM				
CCc1cc2ncc(CN3CCN(c4ccc(C(=O)NC)nc4)CC3)cc2[nH]c1=O [AZD5305]					4 ± 0.8 nM	4.1 ± 1.6 nM	2.6 ± 0.6 nM	2.1 ± 0.5 nM	124 ± 4 mm^3	61.08%	41.19%	1,378 ± 99 mm^3
